Experimental data taken from patent US20100190794A1, “Herbicidally Active Composition” (BASF SE, priority 2007, published 2010).

What was measured:
DIGSA = assay: greenhouse test, post-emergence treatment; format: in vivo, Digitaria sanguinalis; conditions: 125 g/ha a.s., Use Example 18
Method: (§1) The culture containers used were plastic pots containing loamy sand with approximately 3.0% of humus as substrate. The seeds of the test plants were sown separately for each species.
(§2) For the post-emergence treatment, the test plants were grown to a plant height of from 3 to 15 cm, depending on the plant habit, and only then treated with the active compounds which had been suspended or emulsified in water. To this end, the test plants were either sown directly and grown in the same containers, or they were first grown separately as seedlings and transplanted into the test containers a few days prior to treatment.
(§3) Depending on the species, the plants were kept at 10-25° C. and 20-35° C., respectively. The test period extended over 2 to 4 weeks. During this time, the plants were tended and their response to the individual treatments was evaluated.
(§4) Evaluation was carried out using a scale from 0 to 100. 100 means no emergence of the plants, or complete destruction of at least the above-ground parts, and 0 means no damage or normal course of growth. Good herbicidal activity is given at values of at least 70, and very good herbicidal activity is given at values of at least 85. […]
(§5) The test period extended over 20 or 21 days. During this time, the plants were tended, and their reactions to the treatment with active compound was monitored.
(§6) What was evaluated was the damage by the chemical compositions using a scale of from 0 to 100%, in comparison to the untreated control plants. […]
(§7) In the examples below, using the method of S. R. Colby (1967) “Calculating synergistic and antagonistic responses of herbicide combinations”, Weeds 15, p. 22 ff., the value E, which is expected if the activity of the individual active compounds is only additive, was calculated. […]
(§8) If the value found in experiments is higher than the value E calculated according to Colby, a synergistic effect is present.

APESV = assay: greenhouse test, pre-emergence treatment; format: in vivo, Apera spica-venti; conditions: 32 g/ha a.s., Use Example 21
Excerpt: as §1
(§9) For the pre-emergence treatment, the active compounds, suspended or emulsified in water, were applied directly after sowing by means of finely distributing nozzles. The containers were irrigated gently to promote germination and growth and subsequently covered with transparent plastic hoods until the plants had rooted. This cover caused uniform germination of the test plants unless this was adversely affected by the active compounds.
as §3
(§10) Evaluation was carried out using a scale from 0 to 100. 100 means no emergence of the plants, or complete destruction of at least the above-ground parts, and 0 means no damage or normal course of growth. Good herbicidal activity is given at values of at least 70, and very good herbicidal activity is given at values of at least 85.
(§11) The respective stated components A and B, and if appropriate, C were formulated as a 5% by weight or 10% by weight strength emulsion concentrate or a commercially available formulation of component B was used and, with addition of the amount of solvent system, introduced into the spray liquor used for applying the active compound. In the examples, the solvent used was water.
as §5
(§12) What was evaluated was the damage by the chemical compositions using a scale of from 0 to 100%, in comparison to the untreated control plants. 0 means no damage, and 100 means complete destruction of the plants.
(§13) In the examples below, using the method of S. R. Colby (1967) “Calculating synergistic and antagonistic responses of herbicide combinations”, Weeds 15, p. 22 ff., the value E, which is expected if the activity of the individual active compounds is only additive, was calculated.
(§14) where X=percent activity using active compound A at an application rate a; Y=percent activity using active compound B at an application rate b; E=expected activity (in %) by A+B at application rates a+b.
as §8

ALOMY = assay: greenhouse test, pre-emergence treatment; format: in vivo, Alopecurus myosuroides
Excerpt: as §1, §9, §3, §10, §11, §5, §12, §13, §14, §8

LOLMU = assay: greenhouse test, pre-emergence treatment; format: in vivo, Lolium multiflorum
Excerpt: as §1, §9, §3, §10, §11, §5, §12, §13, §14, §8

LAMPU = assay: greenhouse test, pre-emergence treatment; format: in vivo, Lamium purpureum; conditions: 32 g/ha a.s., Use Example 21
Excerpt: as §1, §9, §3, §10, §11, §5, §12, §13, §14, §8

SETVI = assay: greenhouse test, post-emergence treatment; format: in vivo, Setaria viridis; conditions: 125 g/ha a.s., Use Example 18
Method: as §1, §2, §3, §10, §11, §5, §12, §13, §14, §8

POAAN = assay: greenhouse test, pre-emergence treatment; format: in vivo, Poa annua; conditions: 6.25 g/ha a.s., Use Example 6
Excerpt: as §1, §9, §3, §10, §11, §5, §12, §13, §14, §8

AVEFA = assay: greenhouse test, pre-emergence treatment; format: in vivo, Avena fatua; conditions: 6.25 g/ha a.s., Use Example 6
Excerpt: as §1, §9, §3, §4, §5, §6, §7, §8

**Q.** Which results are given for CC(C)N(C(=O)COc1nnc(C(F)(F)F)s1)c1ccc(F)cc1 [Flufenacet, reference compound]?
**A.** Herbicidal action in % after 20 days against DIGSA (DIGSA): 75%; Herbicidal action in % after 20 days against APESV (APESV): 95%; Herbicidal action in % after 20 days against ALOMY (ALOMY; 32 g/ha a.s., Use Example 21): 70%; Herbicidal action in % after 20 days against ALOMY (ALOMY; 62.5 g/ha a.s., Use Example 13): 75%; Herbicidal action in % after 20 days against ALOMY (ALOMY; 125 g/ha a.s., Use Example 13): 90%; Herbicidal action in % after 20 days against LOLMU (LOLMU; 32 g/ha a.s., Use Example 21): 65%; Herbicidal action in % after 20 days against LOLMU (LOLMU; 62.5 g/ha a.s., Use Example 13): 40%; Herbicidal action in % after 20 days against LOLMU (LOLMU; 125 g/ha a.s., Use Example 13): 70%; Herbicidal action in % after 20 days against LAMPU (LAMPU): 20%; Herbicidal action in % after 20 days against SETVI (SETVI): 70%

**Q.** Which results are given for CC(C)N(C)S(=O)(=O)NC(=O)c1cc(-n2c(=O)cc(C(F)(F)F)n(C)c2=O)c(F)cc1Cl [2-chloro-5-[3,6-dihydro-3-methyl-2,6-dioxo-4-(trifluoromethyl)-1(2H)-pyrimidinyl]-4-fluoro-N-[(isopropyl)methylsulfamoyl]benzamide, reference compound]?
**A.** Herbicidal action in % after 20 days against POAAN (POAAN): 0%; Herbicidal action in % after 20 days against AVEFA (AVEFA): 0%
